From the CheMixHub viscosity set

Assay: xn = mol fraction of the nth substance listed

CN1CCCC1=O + CN(C)C=O
viscosity [mPa·s], 101 kPa
Conditions | x2 = 0.1003 | x2 = 0.2001 | x2 = 0.2997 | x2 = 0.4 | x2 = 0.5007 | x2 = 0.595 | x2 = 0.7 | x2 = 0.8 | x2 = 0.9003
303.15 K | 1.417 | 1.328 | 1.249 | 1.17 | 1.085 | 1.018 | 0.943 | 0.872 | 0.809
313.15 K | 1.231 | 1.152 | 1.085 | 1.02 | 0.948 | 0.891 | 0.832 | 0.775 | 0.721
323.15 K | 1.097 | 1.024 | 0.967 | 0.908 | 0.846 | 0.794 | 0.742 | 0.692 | 0.646

CCC(=O)CC + CN(C)c1ccccc1
viscosity [mPa·s], 101 kPa
Conditions | 303.15 K | 308.15 K
x2 = 0.0612 | 0.548 | 0.499
x2 = 0.1145 | 0.645 | 0.588
x2 = 0.1652 | 0.732 | 0.668
x2 = 0.2302 | 0.832 | 0.764
x2 = 0.3025 | 0.928 | 0.859
x2 = 0.3741 | 1.006 | 0.935
x2 = 0.4256 | 1.053 | 0.98
x2 = 0.5023 | 1.105 | 1.029
x2 = 0.5714 | 1.137 | 1.056
x2 = 0.6325 | 1.155 | 1.069
x2 = 0.7045 | 1.165 | 1.074
x2 = 0.7812 | 1.167 | 1.073
x2 = 0.8512 | 1.165 | 1.073

CCC(=O)CC + COC(=O)c1ccccc1
viscosity [mPa·s], 101 kPa
Conditions | x2 = 0.0869 | x2 = 0.176 | x2 = 0.2669 | x2 = 0.3636 | x2 = 0.4616 | x2 = 0.5586 | x2 = 0.6631 | x2 = 0.7718 | x2 = 0.8792
303.15 K | 0.486 | 0.557 | 0.634 | 0.722 | 0.822 | 0.932 | 1.07 | 1.235 | 1.422
313.15 K | 0.43 | 0.485 | 0.548 | 0.619 | 0.7 | 0.79 | 0.896 | 1.025 | 1.169

OCc1ccccc1 + Cc1ccccc1
viscosity [mPa·s]
Conditions | 293.15 K | 303.15 K | 313.15 K | 323.15 K
100 kPa, x1 = 0.1006 | 0.699 | – | – | –
100 kPa, x1 = 0.1997 | 0.851 | – | – | –
100 kPa, x1 = 0.3007 | 1.051 | – | – | –
100 kPa, x1 = 0.402 | 1.329 | – | – | –
100 kPa, x1 = 0.502 | 1.717 | – | – | –
100 kPa, x1 = 0.6 | 2.158 | – | – | –
100 kPa, x1 = 0.6925 | 2.764 | – | – | –
100 kPa, x1 = 0.7994 | 3.659 | – | – | –
100 kPa, x1 = 0.8995 | 4.821 | – | – | –
101 kPa, x2 = 0.0973 | – | 3.563 | 2.793 | 2.117
101 kPa, x2 = 0.1952 | – | 2.788 | 2.237 | 1.73
101 kPa, x2 = 0.2937 | – | 2.226 | 1.781 | 1.403
101 kPa, x2 = 0.3927 | – | 1.758 | 1.44 | 1.157
101 kPa, x2 = 0.4924 | – | 1.386 | 1.15 | 0.9401
101 kPa, x2 = 0.5927 | – | 1.107 | 0.9561 | 0.7918
101 kPa, x2 = 0.6936 | – | 0.8989 | 0.7776 | 0.6576
101 kPa, x2 = 0.7951 | – | 0.7359 | 0.6508 | 0.5456
101 kPa, x2 = 0.8972 | – | 0.6154 | 0.5511 | 0.4771

Nc1ccccc1[N+](=O)[O-] + ClC(Cl)(Cl)Cl
viscosity [mPa·s], 101 kPa
Conditions | 303.15 K | 308.15 K | 313.15 K | 318.15 K | 323.15 K
x1 = 0.02174 | 0.8952 | 0.8298 | 0.7841 | 0.7321 | 0.6886
x1 = 0.08489 | – | 1 | 0.9361 | 0.874 | 0.8093

CCC(=O)CC + ClC=C(Cl)Cl
viscosity [mPa·s], 101.33 kPa
Conditions | x2 = 0.1126 | x2 = 0.2042 | x2 = 0.2941 | x2 = 0.4591 | x2 = 0.5988 | x2 = 0.6807 | x2 = 0.7837 | x2 = 0.8997
298.15 K | 0.439 | 0.463 | 0.489 | 0.532 | 0.57 | 0.582 | 0.598 | 0.614
308.15 K | 0.402 | 0.426 | 0.449 | 0.491 | 0.523 | 0.539 | 0.558 | 0.574
318.15 K | 0.379 | 0.401 | 0.422 | 0.462 | 0.494 | 0.508 | 0.525 | 0.544

OCc1ccccc1 + Clc1ccccc1
303.15 K, 101 kPa
Conditions | viscosity [mPa·s]
x1 = 0.1372 | 0.9498
x1 = 0.2844 | 1.158
x1 = 0.3371 | 1.26
x1 = 0.4255 | 1.459
x1 = 0.5741 | 1.907
x1 = 0.6507 | 2.212
x1 = 0.7556 | 2.713
x1 = 0.8031 | 2.982
x1 = 0.9053 | 3.662

CCOC(=O)CC#N + N#CCc1ccccc1
viscosity [mPa·s], 101 kPa
Conditions | x2 = 0.1383 | x2 = 0.4842 | x2 = 0.8426
303.15 K | 2.135 | 1.995 | –
313.15 K | – | – | 1.535

CC(=O)OC(C)=O + O
viscosity [mPa·s], 101 kPa
Conditions | x1 = 0.2 | x1 = 0.4 | x1 = 0.45 | x1 = 0.5 | x1 = 0.6 | x1 = 0.8
298.15 K | 2.189 | 1.852 | 1.497 | 1.193 | 1.059 | 0.936
313.15 K | 1.484 | 1.294 | 1.104 | 0.921 | 0.835 | 0.735

CCCCCCCCCCCCCC[P+](CCCCCC)(CCCCCC)CCCCCC.[O-]c1ccccc1 + O
Conditions | viscosity [mPa·s]
298.15 K, 100 kPa, x2 = 0.69 | 183

CCN(CC)C(C)=O + O
298.16 K, 101 kPa
Conditions | viscosity [mPa·s]
x2 = 0.065 | 1.32
x2 = 0.1626 | 1.56
x2 = 0.255 | 1.86
x2 = 0.3529 | 2.26
x2 = 0.4791 | 2.92
x2 = 0.6036 | 3.7
x2 = 0.6894 | 4.22
x2 = 0.7465 | 4.38
x2 = 0.7702 | 4.36
x2 = 0.8188 | 4.2
x2 = 0.9049 | 2.45

NCCO.O=S(=O)([N-]S(=O)(=O)C(F)(F)F)C(F)(F)F.[Li+] + O
323.15 K, 101 kPa
Conditions | viscosity [mPa·s]
x1 = 0.03 | 1.2
x1 = 0.0597 | 2.1
x1 = 0.1001 | 3.72
x1 = 0.1995 | 8.33
x1 = 0.298 | 23.19
x1 = 0.4016 | 56.22
x1 = 0.4908 | 103.5
x1 = 0.6602 | 251.5
x1 = 0.8109 | 498.1
x1 = 0.8996 | 741.6

O=S(=O)([O-])[O-].[Cu+2] + O
viscosity [mPa·s]
Conditions | 308.15 K | 313.15 K | 323.15 K
101.3 kPa, x1 = 0.00112 | 0.742 | 0.673 | 0.5823
101.3 kPa, x1 = 0.002247 | 0.7918 | 0.7176 | 0.6001
101.3 kPa, x1 = 0.004484 | 0.8376 | 0.7579 | 0.6314
101.3 kPa, x1 = 0.008927 | 0.9348 | 0.8476 | 0.7076
101.3 kPa, x1 = 0.0177 | – | 0.977 | 0.817
101.33 kPa, x1 = 0.000905 | 0.7428 | 0.6739 | 0.5628
101.33 kPa, x1 = 0.002718 | 0.7922 | 0.7182 | 0.6005
101.33 kPa, x1 = 0.00453 | 0.838 | 0.7585 | 0.6319
101.33 kPa, x1 = 0.006344 | 0.8866 | 0.8013 | 0.6685
101.33 kPa, x1 = 0.008159 | 0.9348 | 0.8482 | 0.7082

CCCCCCCCCCCCCC[P+](CCCCCC)(CCCCCC)CCCCCC.[O-]c1ccccc1 + O=C=O
Conditions | viscosity [mPa·s]
298.15 K, 100 kPa, x2 = 0.5 | 368

OCc1ccccc1 + O=[N+]([O-])c1ccccc1
303.15 K, 101 kPa
Conditions | viscosity [mPa·s]
x1 = 0.1725 | 1.292
x1 = 0.2352 | 1.292
x1 = 0.3083 | 1.389
x1 = 0.4517 | 1.657
x1 = 0.5919 | 2.015
x1 = 0.6592 | 2.234
x1 = 0.7706 | 2.658
x1 = 0.8314 | 2.956
x1 = 0.9106 | 3.486
